{
  "source": "patent US20110207726A1",
  "about": "“Inhibitors of Human Cathepsin L, Cathepsin B, and Cathepsin S” (The Trustees of the University of Pennsylvania, priority 2008, published 2011)",
  "key": {"[1]": {"molecular_target": "T1, human liver cathepsin L (Homo sapiens, UniProt P07711)", "T1 construct": "8.7 ng/mL human liver cathepsin L (Calbiochem 219402); purchased Calbiochem 219402; host or cells: human liver", "T1 sequence (P07711 114-288 limits assumed)": "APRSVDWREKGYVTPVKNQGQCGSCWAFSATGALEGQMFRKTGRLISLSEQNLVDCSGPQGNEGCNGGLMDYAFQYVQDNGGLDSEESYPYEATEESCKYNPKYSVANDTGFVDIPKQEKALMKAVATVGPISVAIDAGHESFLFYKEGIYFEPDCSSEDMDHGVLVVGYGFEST", "T1 sequence (P07711 292-333 limits assumed)": "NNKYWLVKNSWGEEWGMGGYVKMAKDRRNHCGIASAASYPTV", "assay": "Cathepsin L assay, IC50 determination", "assay_type": "biochemical", "method_in_brief": "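Enzyme (300 pM) pre-activated for 30 min in 20 mM sodium acetate, 1 mM EDTA, 5 mM cysteine, pH 5.5, then incubated 1 h at room temperature with 1 microM Z-Phe-Arg-AMC and compound. Fluorescent read-out on a microplate reader; IC50 in triplicate.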"}, "[2]": {"assay": "Stability in DMSO and cathepsin L assay buffer", "assay_type": "physicochemical", "description": "Some variability in IC50 values determined for Compound (iii) prompted us to explore the stability of both Compound No. 1 and Compound (iii) in solvents relevant to the bioassay."}, "[3]": {"molecular_target": "T2, Papain from Carica papaya (Carica papaya, UniProt P00784)", "T2 construct": "Papain from Carica papaya (Calbiochem 5125, 11 ng/mL); purchased Calbiochem 5125; host or cells: Carica papaya", "T2 sequence (P00784 134-345)": "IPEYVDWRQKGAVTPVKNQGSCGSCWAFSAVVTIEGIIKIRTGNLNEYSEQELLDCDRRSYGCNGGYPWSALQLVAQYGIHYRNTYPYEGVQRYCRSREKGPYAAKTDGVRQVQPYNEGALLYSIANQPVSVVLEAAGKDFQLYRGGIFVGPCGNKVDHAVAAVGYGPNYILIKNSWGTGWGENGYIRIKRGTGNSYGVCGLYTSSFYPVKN", "assay": "Selectivity assay, papain", "assay_type": "biochemical", "settings": "for IC50: Papain, no preincubation", "protocol": "(§1) Compound No. 1 was assayed for inhibition against papain and cathepsins B, G, K, S, and V. Papain from Carica papaya (Calbiochem 5125, 11 ng/mL), human cathepsin K (Calbiochem 342001, 35 ng/mL), human spleen cathepsin S (Calbiochem 219344, 40 ng/mL), and human cathepsin V (Calbiochem 219467, 39 ng/ml) were assayed using Z-Phe-Arg-AMC substrate at 20 μM, 20 μM, 15 μM, and 1 μM, respectively. Human liver cathepsin B (Calbiochem 219362, 65 ng/mL) was assayed using 15 μM Z-Arg-Arg-AMC substrate (Bachem I-1135). Human neutrophil cathepsin G (Calbiochem 219373, 4.2 μg/mL) was assayed using 15 μM Suc-Ala-Ala-Pro-Phe-AMC substrate (Sigma S9761). All reactions were performed in 20 mM sodium acetate buffer containing 5 mM cysteine and 1 mM EDTA, pH 5.5. Reaction progress was monitored using the Envision microplate reader. IC50 values were measured in triplicate."}, "[4]": {"molecular_target": "T3, human cathepsin V (Homo sapiens, UniProt O60911)", "T3 construct": "purchased Calbiochem 219467", "T3 sequence (O60911 114-334)": "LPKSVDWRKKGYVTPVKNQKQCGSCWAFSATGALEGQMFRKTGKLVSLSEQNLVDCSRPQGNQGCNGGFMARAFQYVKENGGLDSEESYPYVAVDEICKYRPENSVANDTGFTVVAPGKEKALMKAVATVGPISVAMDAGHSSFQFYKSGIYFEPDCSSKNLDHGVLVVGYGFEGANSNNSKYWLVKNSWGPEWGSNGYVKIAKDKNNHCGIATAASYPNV", "assay": "Selectivity assay, cathepsin V", "assay_type": "biochemical", "protocol": "as §1"}, "[5]": {"molecular_target": "T4, human cathepsin L (Homo sapiens, UniProt P07711)", "T4 sequence (P07711 114-288 limits assumed)": "as the sequence (P07711 114-288 limits assumed) above", "T4 sequence (P07711 292-333 limits assumed)": "as the sequence (P07711 292-333 limits assumed) above", "assay": "Preincubation studies, cathepsin L", "assay_type": "biochemical", "design": "8.7 ng/mL human liver cathepsin L (Calbiochem 219402); purchased Calbiochem 219402; host or cells: human liver", "protocol": "To establish the time-dependent mechanism of inhibition, enzyme and inhibitor were preincubated for various time points in a 96-well microplate prior to the addition of substrate to initiate the enzymatic reaction. 47.5 μL of cathepsin L (18.3 ng/mL) and 47.5 μL of Compound No. 1 at various concentrations in assay buffer were incubated up to 4 hours. Five μL of Z-Phe-Arg-AMC substrate were then added and the plate was monitored for AMC hydrolysis on the Envision fluorescent microplate reader."}, "[6]": {"system": "zebrafish", "assay": "Zebrafish live organism toxicity assay", "settings": "at 100 μM"}, "[7]": {"molecular_target": "T4, human cathepsin L", "assay": "Reversibility, preincubation/dilution assay", "assay_type": "biochemical", "design": "8.7 ng/mL human liver cathepsin L (Calbiochem 219402); purchased Calbiochem 219402; host or cells: human liver", "protocol": "This mixture was then diluted 100-fold in a Corning 3650 96-well plate with assay buffer containing 1 μM Z-Phe-Arg-AMC to a final volume of 200 μL. A rapidly reversible inhibitor should dissociate from the enzyme to restore approximately >90% of enzymatic activity. Fluorescence intensities of the 200 μL reaction wells were monitored continuously for AMC hydrolysis on the Envision plate reader.\nThe mechanism of inhibition, to determine whether the compound acted as a rapidly reversible, slowly reversible, or irreversible inhibitor, was evaluated using a preincubation/dilution assay (Copeland, 2005, Evaluation of Enzyme Inhibitors in Drug Discovery: A Guide for Medicinal Chemists and Pharmacologists, J. Wiley, Hoboken, N.J.). […] After 8820 s, the rate of product formation for the 4 hour preincubated reaction was 4.7 times greater than the initial rate of product formation, showing that the inhibitor was being released from the enzyme-inhibitor complex and enzymatic activity was indeed recovering."}},
  "note": "Like-named read-outs stand apart in the source and are kept apart here.",
  "data": [
    {"smiles": "CCc1ccccc1NC(=O)CSC(=O)NNC(=O)[C@H](Cc1c[nH]c2ccccc12)NC(=O)OC(C)(C)C", "note": "[Compound No. 1]", "values": [
      {"measurement": "Selectivity Index @ 10 min", "setting": "[1]; Cathepsin L, human liver, 10 min", "value": 1},
      {"measurement": "IC50", "setting": "[1]; Cathepsin L, human liver, no preincubation, 30 min, read-out: IC50 @ 30 min", "value": "75 ± 5", "unit": "nM"},
      {"measurement": "IC50", "setting": "[1]; Cathepsin L, human liver, no preincubation, 60 min, read-out: IC50 @ 60 min", "value": "56 ± 4", "unit": "nM"},
      {"measurement": "IC50", "setting": "[1]; Cathepsin L, human liver, no preincubation, 90 min, read-out: IC50 @ 90 min", "value": "50 ± 3", "unit": "nM"},
      {"measurement": "Selectivity Index @ 30 min", "setting": "[1]; Cathepsin L, 30 min", "value": 1},
      {"measurement": "Selectivity Index @ 60 min", "setting": "[1]; Cathepsin L, 60 min", "value": 1},
      {"measurement": "Selectivity Index @ 90 min", "setting": "[1]; Cathepsin L, 90 min", "value": 1},
      {"measurement": "Selectivity Index", "setting": "[1]; Cathepsin L, IC50 protease / IC50 cathepsin L, over 10-90 min", "value": 1},
      {"measurement": "IC50", "setting": "[1]; IC50 @ 10 min, Cathepsin L, human liver, no preincubation, 10 min", "value": "155 ± 12", "unit": "nM"},
      {"measurement": "IC50", "setting": "[1]; Table 1, read-out: IC50 Cat L", "value": 56, "unit": "nM"},
      {"measurement": "IC50", "setting": "[1]; Table 17, n = 3, C, S or O at the sulfur position, read-out: Cathepsin L inhibitory activity IC50", "value": "56 ± 4", "unit": "nM"},
      {"measurement": "IC50", "setting": "[1]; no preincubation of enzyme and inhibitor, read-out: IC50 against cathepsin L (no preincubation)", "value": 56, "unit": "nM"},
      {"measurement": "stability in DMSO", "setting": "[2]; DMSO, room temperature", "value": "completely stable"},
      {"measurement": "stability in cathepsin L assay buffer", "setting": "[2]; NaOAc (20 mM), pH 5.5, EDTA (1 mM), cysteine (5 mM)", "value": "completely stable"},
      {"measurement": "IC50", "setting": "[3]; IC50 @ 10 min, Carica papaya, 10 min", "value": "6760 ± 367", "unit": "nM"},
      {"measurement": "Selectivity Index @ 10 min", "setting": "[3]; Papain vs cathepsin L, 10 min", "value": 44},
      {"measurement": "Selectivity Index @ 30 min", "setting": "[3]; Papain vs cathepsin L, 30 min", "value": 40},
      {"measurement": "Selectivity Index @ 60 min", "setting": "[3]; Papain vs cathepsin L, 60 min", "value": 46},
      {"measurement": "Selectivity Index @ 90 min", "setting": "[3]; Papain vs cathepsin L, 90 min", "value": 31},
      {"measurement": "Selectivity Index", "setting": "[3]; Papain vs cathepsin L, over 10-90 min", "value": "31-46"},
      {"measurement": "IC50", "setting": "[3]; 30 min, read-out: IC50 @ 30 min", "value": "2980 ± 282", "unit": "nM"},
      {"measurement": "IC50", "setting": "[3]; 60 min, read-out: IC50 @ 60 min", "value": "2600 ± 208", "unit": "nM"},
      {"measurement": "IC50", "setting": "[3]; 90 min, read-out: IC50 @ 90 min", "value": "1560 ± 314", "unit": "nM"},
      {"measurement": "IC50", "setting": "[4]", "value": "1010 ± 142", "unit": "nM"},
      {"measurement": "Selectivity Index @ 10 min", "setting": "[4]; Cathepsin V vs cathepsin L, 10 min", "value": 7},
      {"measurement": "Selectivity Index @ 30 min", "setting": "[4]; Cathepsin V vs cathepsin L, 30 min", "value": 9},
      {"measurement": "Selectivity Index @ 60 min", "setting": "[4]; Cathepsin V vs cathepsin L, 60 min", "value": 11},
      {"measurement": "Selectivity Index @ 90 min", "setting": "[4]; Cathepsin V vs cathepsin L, 90 min", "value": 11},
      {"measurement": "Selectivity Index", "setting": "[4]; Cathepsin V vs cathepsin L, over 10-90 min", "value": "7-11"},
      {"measurement": "IC50", "setting": "[4]; Cathepsin V, no preincubation, 30 min, read-out: IC50 @ 30 min", "value": "688 ± 39", "unit": "nM"},
      {"measurement": "IC50", "setting": "[4]; Cathepsin V, no preincubation, 60 min, read-out: IC50 @ 60 min", "value": "618 ± 35", "unit": "nM"},
      {"measurement": "IC50", "setting": "[4]; Cathepsin V, no preincubation, 90 min, read-out: IC50 @ 90 min", "value": "576 ± 24", "unit": "nM"},
      {"measurement": "IC50", "setting": "[5]; IC50 against human cathepsin L after 1 hour preincubation, preincubation with enzyme 1 h prior to substrate addition", "value": "7.5 ± 1", "unit": "nM"},
      {"measurement": "IC50", "setting": "[5]; IC50 against human cathepsin L after 2 hours preincubation, preincubation with enzyme 2 h", "value": "4.2 ± 0.6", "unit": "nM"},
      {"measurement": "IC50", "setting": "[5]; preincubation with enzyme 4 h, read-out: IC50 against human cathepsin L after 4 hours preincubation", "value": "1 ± 0.5", "unit": "nM"},
      {"measurement": "toxicity to zebrafish", "setting": "[6]", "value": "lack of toxicity"},
      {"measurement": "enzymatic activity returned after 100-fold dilution", "setting": "[7]; 1 hour preincubation at 75 nM, 6000 s into the reaction", "value": "approximately 11%"},
      {"measurement": "rate of product formation relative to initial rate", "setting": "[7]; 4 hour preincubated reaction, after 8820 s", "value": 4.7, "unit": "times"},
      {"measurement": "reaction inhibited immediately after addition of substrate", "setting": "[7]; 4 hr preincubated enzyme-inhibitor", "value": 99.8, "unit": "%"},
      {"measurement": "mechanism of inhibition (reversibility)", "setting": "[7]; preincubation/dilution assay", "value": "very slowly reversible inhibitor"}
    ]}
  ]
}
